Experimental data: US4714774A, “Benzoic acid derivatives and their production” (Takeda Chemical Industries, Ltd., priority 1984, dated 1987)

Columns and labels:
mice = assay: Acute oral toxicity in mice; format: in vivo, mouse (Jcl:ICR strain); conditions: male mice
Experimental: Five 5-week-old male mice per group, of Jcl:ICR strain, weighing about 30 g each, were used. Compound (I')-1 was suspended in a 5% solution of gum arabic and administered orally at the level of 0.2 ml per 10 grams body weight.

[1] = tested on: bronchoconstriction in guinea pigs due to an intravenous administration of synthetic leukotriene D4 (LTD4); assay: Inhibition of LTD4-induced bronchoconstriction in guinea pigs, oral dosing (Konzett-Rossler method); format: in vivo, guinea pig (Hartley strain); conditions: Cavia porcellus, 1 h, guinea pig, p.o. one hour before LTD4 10 μg/kg i.v., inhibition of overflow volume 30 seconds after LTD4, read-out: ID50 (p.o.) (50% inhibitory dose)
Experimental: Guinea pigs of Hartley strain, both male and female, with body weights about 400 g were assigned to groups of 6 to 10 individuals, and the bronchoconstriction due to LTD4 was measured according to the method of Konzett-Rossler [Konzett, H. and Rossler, R.: Naunyn-Schmiedebergs Archiv fur Experimentelle Pathologie und Pharmakologie 195, 71-74 (1940)]. Each guinea pig was fixed in supine position under urethane anesthesia (1.5 g/kg, intraperitoneal) and the trachea was incised and connected to an artificial respiration apparatus, Rodent Respirator Model 680 [Harvard Apparatus Company, U.S.A.] via a cannula. The branch tube of this tracheal cannula was connected to Bronchospasm Transducer Model 7020 [Ugobasil Biological Researach Apparatus, Italy]. Under the conditions of 4 to 7 ml of air per stroke, 70 strokes per minute and a lung loading pressure of 10 cmH2 O, the volume of overflowing air was recorded on Rectigraph-8S (San-ei Sokki Co. Ltd., Japan) via a transducer. After administration of gallamine.triethiodide (1 mg/kg, i.v.), a solution of LTD4 in physiological saline (10 μg/kg) was intravenously administered and the bronchoconstriction elicited thereby was recorded for 15 minutes. […]
*^1 ID50 (50% inhibitory dose): Each value was calculated from […]

In the case of `CCCc1c(OCCCOc2ccc(C(=O)O)cc2Br)ccc(C(C)=O)c1OC(C)=O` [Compound (I')-1, 4-[3-(3-acetoxy-4-acetyl-2-propylphenoxy)propoxy]-3-bromobenzoic acid], the autopsy findings (mice; oral 500 mg/kg, autopsy after 7 days) is reported as “did not reveal any abnormalities”, the “symptoms attributable to the compound” value (mice; single oral dose 500 mg/kg) is reported as “no symptoms that could be attributable to compound (I')-1” and the ED50 [1] is reported as 47 µmol/kg.
